Values quoted from earlier work in patent US12239707B2, “Photodynamic compositions and methods of use” (MT RESEARCH, LLC, priority 2018, dated 2025).

Conditions: taken orally; 95% remains intraluminal

Question: For `COC(=O)c1ccc2c(c1)NC(=O)/C2=C(\Nc1ccc(N(C)C(=O)CN2CCN(C)CC2)cc1)c1ccccc1` [nintedanib], which “fraction of nintedanib absorbed” value is on record?
Answer: 5%
